# Reference: PMC5622171 (Nature Communications, 2017)
# Entries after “also recorded” stand apart in the source; their conditions may differ.
# Columns and labels:
# [1] = target: T1, mPXR (Mus musculus, UniProt O54915); assay: mPXR transactivation assay; format: cell-based; conditions: only at concentrations higher than 5 µM
# T1 construct: host or cells: Hepa 1-6
# Method: For the mPXR transactivation assay, Hepa 1-6 cells were co-transfected with pCMV6-mPXR (Cat. No. MR226044, OriGene Technologies, Rockville, MD), pGL3-CYP3A4-luc and pRL-TK by using Lipofectamine 3000. […] The relative luciferase activity was determined by normalizing the firefly luciferase signal to the Renilla luciferase signal. The final DMSO concentration was 0.3% in all assay wells. In the agonistic assays, 10 μM PCN and DMSO were used as the positive (100% activation) and negative control (0% activation), respectively. […] Compound activity was normalized to the controls.
# [2] = test system: LS180 cells (parental); assay: CellTiter-Glo cytotoxicity assay; conditions: 10 µM SPA70
# [3] = target: T2, hPXR–NCoR (Homo sapiens, UniProt O75469); format: biochemical
# T2 construct: 5 nM GST-hPXR-LBD; purchased Thermo Fisher Scientific
# T2 sequence (O75376 2256-2278 partner limits assumed, one chain of several): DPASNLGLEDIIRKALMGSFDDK
# [4] = test system: CYP3A4; assay: Paclitaxel metabolism in primary human hepatocytes (LC/MS/MS); format: in vitro ADME; conditions: 10 µM SPA70, 1 µM PTX, 24 or 48 h
# Method: Calibration and quality-control samples were prepared.
# [5] = target: T3, hPXR (Homo sapiens, UniProt O75469); assay: hPXR transactivation assay, HepG2 stable cell line, agonistic mode
# T3 sequence (O75469 1-434): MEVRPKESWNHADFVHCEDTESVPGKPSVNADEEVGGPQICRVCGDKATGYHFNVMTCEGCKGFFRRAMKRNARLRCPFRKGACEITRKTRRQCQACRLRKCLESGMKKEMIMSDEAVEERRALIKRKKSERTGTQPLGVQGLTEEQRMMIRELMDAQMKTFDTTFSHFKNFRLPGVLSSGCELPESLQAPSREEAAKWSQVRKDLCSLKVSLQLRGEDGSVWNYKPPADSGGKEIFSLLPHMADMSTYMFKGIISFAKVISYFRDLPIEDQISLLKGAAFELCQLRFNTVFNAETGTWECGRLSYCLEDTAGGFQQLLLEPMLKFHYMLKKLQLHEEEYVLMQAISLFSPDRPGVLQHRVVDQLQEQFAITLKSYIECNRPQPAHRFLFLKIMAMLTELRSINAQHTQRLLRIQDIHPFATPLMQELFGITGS
# [6] = test system: CYP3A4; assay: CYP3A4 protein levels in primary human hepatocytes (western blot); format: cell-based
# Method: Cells were rinsed once with cold PBS then lysed in RIPA lysis buffer (Thermo Fisher Scientific) containing protease inhibitor (Roche). Mouse liver samples were homogenized in 500 μl of cold RIPA lysis buffer in a Bullet Blender Blue homogenizer (Next Advance, Averill Park, NY). Then, 25 μg of total protein lysates were loaded onto NuPAGE 4%–12% Bis-Tris gels (Invitrogen) with NuPAGE MES SDS running buffer (Invitrogen). The proteins were transferred from the gel to a nitrocellulose membrane by using the iBlot gel-transfer system (Invitrogen). The membrane was then blocked for 1 h with Odyssey Blocking Buffer (LI-COR Biosciences, Lincoln, NE) and probed with mouse monoclonal antibodies against CYP3A4 (K03; stock concentration: 2.5 mg ml^−1, diluted 1:5000)[51], MDR1 (D-11; Cat. No. sc-55510, Santa Cruz Biotechnology, Santa Cruz, CA; stock concentration: 0.2 mg ml^−1, diluted 1:1500), hPXR (H-11; Cat. No. sc-48340, Santa Cruz Biotechnology; stock concentration: 0.2 mg ml^−1, diluted 1:400), mouse Cyp3a (Cat. No. MAB10041, Millipore, Temecula, CA; Lot No. 1957980, diluted 1:1000), or β-actin (Cat. No. A5441, Sigma; Lot No. 043M4840V, diluted 1:5000). […] The relative intensity of each protein band was then determined by normalizing the intensity of each protein band to that of actin. […]
# [7] = test system: LS180 cells with stable exogenous expression of hPXR; assay: CellTiter-Glo cytotoxicity assay; conditions: 10 µM SPA70
# [8] = target: LXRβ (Homo sapiens, UniProt P55055); assay: GeneBLAzer NR-UAS-bla HEK 293 T assay; format: cell-based; conditions: antagonistic mode; only at concentrations higher than 5 µM
# LXRβ, sequence (P55055 222-460 limits assumed): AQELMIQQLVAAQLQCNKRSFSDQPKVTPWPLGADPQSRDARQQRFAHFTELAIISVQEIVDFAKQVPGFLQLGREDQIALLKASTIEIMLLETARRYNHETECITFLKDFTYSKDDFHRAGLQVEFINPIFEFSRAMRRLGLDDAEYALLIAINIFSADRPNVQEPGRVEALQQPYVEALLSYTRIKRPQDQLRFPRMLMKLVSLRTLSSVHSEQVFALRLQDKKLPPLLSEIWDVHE
# [9] = target: T3, hPXR; assay: hPXR transactivation assay, HepG2 stable cell line, antagonistic mode; conditions: SPA70 concentration of 10 μM; all rifampicin concentrations tested
# [10] = test system: SNU-C4 cells; assay: CellTiter-Glo cytotoxicity assay; conditions: 10 µM SPA70
# T1 sequence (O54915 whole entry): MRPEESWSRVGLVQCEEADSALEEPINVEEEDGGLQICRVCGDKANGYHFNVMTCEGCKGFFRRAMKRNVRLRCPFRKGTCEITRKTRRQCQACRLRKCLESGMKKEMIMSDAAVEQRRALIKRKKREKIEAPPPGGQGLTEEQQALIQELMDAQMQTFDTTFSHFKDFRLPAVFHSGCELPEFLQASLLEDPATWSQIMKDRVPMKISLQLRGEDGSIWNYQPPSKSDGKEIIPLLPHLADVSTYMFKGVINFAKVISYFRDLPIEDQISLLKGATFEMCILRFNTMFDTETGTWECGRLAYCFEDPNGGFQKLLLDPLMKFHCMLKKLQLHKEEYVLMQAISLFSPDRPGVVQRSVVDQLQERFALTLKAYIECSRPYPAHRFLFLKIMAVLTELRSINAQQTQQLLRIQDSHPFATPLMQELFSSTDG
smiles,measurement,setting,value
COc1ccc(OC)c(-n2nnc(S(=O)(=O)c3ccc(C(C)(C)C)cc3)c2C)c1 [SPA70],mPXR agonism,[1],very weak mPXR agonist; also recorded: weak agonist of mPXR
same,Toxicity of SPA70 alone in LS180 cells,[2],marginally toxic
same,Effect on hPXR–NCoR interactions,[3],enhanced the hPXR–NCoR interactions
same,Effect on metabolism of paclitaxel to 3′-p-hydroxypaclitaxel or 6α-hydroxypaclitaxel,[4],substantially blocked
same,Effect on basal activity of hPXR,[5],very weakly inhibited the basal activity
same,Effect on CYP3A4 induction by SR12813 and T090137,"[6]; 2.5 μM SPA70, 0.1 μM SR12813 or 0.03 μM T090137, 48 h",able to block the CYP3A4-inducing effect
same,Effect on CYP3A4 induction by rifampicin,"[6]; 2.5 μM SPA70, 1 μM rifampicin, 48 h",substantially blocked
same,Effect on paclitaxel sensitivity of LS180 cells with exogenous hPXR,[7],re-sensitized the cells to paclitaxel
same,Effect on agonistic activity of T0901317 on LXRβ,[8],weakly promoted the agonistic effect of T0901317 on LXRβ; also recorded: marginally increased the agonistic activity of T0901317 on LXRβ
same,Effect on rifampicin-induced hPXR activation,[9],completely blocked the activity of rifampicin
same,Sensitization of SNU-C4 cells to paclitaxel and vincristine,[10],sensitizing the cells to paclitaxel and vincristine
